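In this assay, cells in 96-well plates receive the compound at five concentrations for 48 hours. Endpoints are linearly interpolated between the surrounding concentrations. GI50 = concentration required for 50% inhibition of growth.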 Active and inactive are the calls of the source. Rule as the data show it: active = GI50 up to about 1.1 µM and inactive = higher.
What was measured:
Test in all cases: NCI tumour cell line growth inhibition, 48 h
UACC-62 = test system: UACC-62
OVCAR-4 = test system: OVCAR-4
NCI-H23 = test system: NCI-H23
RXF 393 = test system: RXF 393
SK-MEL-28 = test system: SK-MEL-28
HCT-15 = test system: HCT-15
SNB-19 = test system: SNB-19
EKVX = test system: EKVX
HOP-92 = test system: HOP-92
HT-29 = test system: HT-29
MCF7 = test system: MCF7
SR = test system: SR
RPMI-8226 = test system: RPMI-8226
SK-MEL-5 = test system: SK-MEL-5
OVCAR-5 = test system: OVCAR-5
CAKI-1 = test system: CAKI-1
TK-10 = test system: TK-10
NCI/ADR-RES = test system: NCI/ADR-RES
NCI-H460 = test system: NCI-H460

SMILES | GI50 (UACC-62) | GI50 (OVCAR-4) | GI50 (NCI-H23) | GI50 (RXF 393) | GI50 (SK-MEL-28) | GI50 (HCT-15) | GI50 (SNB-19) | GI50 (EKVX) | GI50 (HOP-92) | GI50 (HT-29) | GI50 (MCF7) | GI50 (SR) | GI50 (RPMI-8226) | GI50 (SK-MEL-5) | GI50 (OVCAR-5) | GI50 (CAKI-1) | GI50 (TK-10) | GI50 (NCI/ADR-RES) | GI50 (NCI-H460)
COc1cc(C2S/C(=C/c3ccccc3)C(=O)N2c2ccc(Cl)cc2)cc(OC)c1OC (stereo not drawn) | 23.3 µM (inactive) | 4.71 µM (inactive) | 12.7 µM (inactive) | 40.6 µM (inactive) | 63.2 µM (inactive) | 9.51 µM | > 88.7 µM (inactive) | 23.8 µM (inactive) | 5.92 µM (inactive) | 23.8 µM (inactive) | 3.09 µM (inactive) | 70 µM (inactive) | 8.18 µM (inactive) | 0.492 µM (active) | > 100 µM (inactive) | 20.9 µM (inactive) | > 100 µM (inactive) | 16.9 µM (inactive) | 
Cc1ccc(C(=O)O)cc1S(=O)(=O)Nn1cnc2ccc(S(=O)(=O)Nc3ccccc3C(=O)O)cc2c1=O | 8.93 µM (inactive) | > 100 µM (inactive) | > 100 µM (inactive) |  | > 100 µM (inactive) | > 100 µM | > 100 µM (inactive) | > 100 µM (inactive) | > 100 µM (inactive) | > 100 µM (inactive) | > 100 µM (inactive) | > 100 µM (inactive) | 54.5 µM (inactive) |  | 54.6 µM (inactive) | > 100 µM (inactive) | > 100 µM (inactive) | > 100 µM (inactive) | > 100 µM (inactive)
N#CC(C#N)=C1C(=Cc2ccc(OCCCCCCCCCCSSCCCCCCCCCCOc3ccc(C=C4C(=C(C#N)C#N)c5ccccc5C4=C(C#N)C#N)cc3)cc2)C(=C(C#N)C#N)c2ccccc21 |  | 21.8 µM (inactive) | 17.3 µM (inactive) | 22.6 µM (inactive) | 21.6 µM (inactive) | 16.7 µM |  | 20.9 µM (inactive) | 17.7 µM (inactive) | 19.2 µM (inactive) | 20.8 µM (inactive) | 19.2 µM (inactive) | 39.2 µM (inactive) | 22.1 µM (inactive) | 20.8 µM (inactive) | 24.7 µM (inactive) | 47.4 µM (inactive) | 19.3 µM (inactive) | 22.1 µM (inactive)
Cc1cc(C)nc(NS(=O)(=O)c2ccc(NC(=O)c3c4ccccc4nc4ccccc34)cc2)n1 | > 100 µM (inactive) | > 100 µM (inactive) | 44.2 µM (inactive) |  | > 100 µM (inactive) | 65.9 µM | > 100 µM (inactive) | > 100 µM (inactive) | > 100 µM (inactive) | 50.8 µM (inactive) | > 100 µM (inactive) | > 100 µM (inactive) | 47.3 µM (inactive) | 38.1 µM (inactive) | > 100 µM (inactive) | 87.3 µM (inactive) | 82.2 µM (inactive) | > 100 µM (inactive) | > 100 µM (inactive)
Cn1ccc(C(=O)NCCN(CCNC(=O)c2ccn(C)c(=O)c2O)CCNC(=O)c2cccc(=O)n2O)c(O)c1=O | > 100 µM (inactive) | > 100 µM (inactive) | > 100 µM (inactive) | > 100 µM (inactive) | > 100 µM (inactive) | > 100 µM | > 100 µM (inactive) |  | > 100 µM (inactive) | > 100 µM (inactive) | > 100 µM (inactive) | > 100 µM (inactive) | > 100 µM (inactive) | > 100 µM (inactive) | > 100 µM (inactive) | > 100 µM (inactive) |  | > 100 µM (inactive) | > 100 µM (inactive)
CCOC(=O)C(CC(C)C)NC(=O)CSc1nnc(COc2ccc(Cl)cc2)n1-c1ccccc1 (stereo not drawn) | 16.4 µM (inactive) | 16.2 µM (inactive) | 16 µM (inactive) | 16.6 µM (inactive) | 16.7 µM (inactive) | 18.5 µM | 17.3 µM (inactive) |  | 18.6 µM (inactive) | 18.5 µM (inactive) | 18.5 µM (inactive) | 2.3 µM (inactive) | 16.4 µM (inactive) | 17.1 µM (inactive) | 19.9 µM (inactive) |  | 17.9 µM (inactive) | 20.5 µM (inactive) | 14.9 µM (inactive)
O=[N+]([O-])c1ccccc1S(=O)(=O)N1CCCc2cc(Cl)ccc21 | 23.9 µM (inactive) | > 100 µM (inactive) | 34 µM (inactive) | 13.8 µM (inactive) | 61 µM (inactive) | 15.5 µM | > 80.2 µM (inactive) | 77.4 µM (inactive) | 21.5 µM (inactive) | 9.35 µM (inactive) | 28.2 µM (inactive) | 5.75 µM (inactive) | 9.02 µM (inactive) | 19.6 µM (inactive) | > 93.1 µM (inactive) | > 100 µM (inactive) | > 100 µM (inactive) | 18 µM (inactive) | 18.6 µM (inactive)
COC(OC)[C@@H]1OC[C@@H](O)[C@@H]1n1cnc2c(N)ncnc21 | > 100 µM (inactive) | > 100 µM (inactive) | > 100 µM (inactive) | > 100 µM (inactive) | > 100 µM (inactive) | > 100 µM |  | > 100 µM (inactive) | > 100 µM (inactive) | > 100 µM (inactive) | > 100 µM (inactive) | > 100 µM (inactive) | > 100 µM (inactive) | > 100 µM (inactive) | > 100 µM (inactive) | > 100 µM (inactive) | > 100 µM (inactive) | > 100 µM (inactive) | > 100 µM (inactive)
CSc1ncnc2c1cnn2Cc1cn(COCC(O)CO)nn1 (stereo not drawn) | > 100 µM (inactive) | > 100 µM (inactive) | > 100 µM (inactive) |  | > 100 µM (inactive) | > 100 µM | > 100 µM (inactive) | > 100 µM (inactive) | > 100 µM (inactive) | > 100 µM (inactive) | > 100 µM (inactive) | > 100 µM (inactive) | > 100 µM (inactive) | > 100 µM (inactive) | > 100 µM (inactive) | > 100 µM (inactive) | > 100 µM (inactive) | > 100 µM (inactive) | 
Cc1nc(C)c(N2CCN(Cc3ccccc3)CC2)c(O)n1 | > 100 µM (inactive) | > 100 µM (inactive) | > 100 µM (inactive) | > 100 µM (inactive) | > 100 µM (inactive) | > 100 µM | > 100 µM (inactive) | > 100 µM (inactive) | > 100 µM (inactive) | > 100 µM (inactive) | > 100 µM (inactive) | > 100 µM (inactive) | > 100 µM (inactive) | > 100 µM (inactive) |  |  | > 100 µM (inactive) | > 100 µM (inactive) | > 100 µM (inactive)
Cc1nc2c(O)cc3c4c(n(Cc5ccccc5)c3c2nc1C)C(=O)CCC4 | 24.5 µM (inactive) | 13.9 µM (inactive) | 51.2 µM (inactive) | 5.46 µM (inactive) | 22.5 µM (inactive) | > 100 µM | 23.3 µM (inactive) | > 100 µM (inactive) | 15.4 µM (inactive) | > 100 µM (inactive) | 19.1 µM (inactive) | 18 µM (inactive) | > 100 µM (inactive) | 25.5 µM (inactive) | > 100 µM (inactive) |  | 34 µM (inactive) | 32.1 µM (inactive) | 83 µM (inactive)

— ChEMBL document CHEMBL1201862, “PubChem BioAssay data set” (2004)
